The text below walks through data of EP2767286B1, “ORAL PHARMACEUTICAL COMPOSITION FOR THE TREATMENT OF INFLAMMATORY GASTROINTESTINAL DISEASES” (Obshestvo S Ogranichennoj Otvetstvennostju "CytoNIR", priority 2011, dated 2018).

Marks after values point to notes of the source that are not given here. Ends that are not written are not given here.

The subject of test [1] is Versuchsmodell der toxischen Hepatitis. Kind of test: Hepatoprotective activity in the experimental model of toxic hepatitis (TCM). The class given is in vivo, Ratten der Linie Sprague-Dawley. The note with it: 100 mg/kg, blood; for APh: alkalische Phosphatase. The text has this:
Beispiel 2 Bewertung der hepatoprotektiven Aktivität der erfindungsgemäßen pharmazeutischen Zubereitung bei Verabreichung am Versuchsmodell der toxischen Hepatitis.
Jede Versuchsgruppe zählte 10 Tiere. Die zu untersuchenden Präparate wurden den Ratten in Form von Wasserlösung intragastrisch mit einer atraumatischen Metallsonde eingeführt. Die Referenztiere bekamen Reinwasser verabreicht.
Als Vergleichspräparat wurde bei der Untersuchung der hepatoprotektiven Aktivität das Präparat Silibinin in Kapseln, Fabrikat Rosa-Phytopharm (Bulgarien) verwendet. in der gleichen Menge wie das Volumen der hepatoprotektiven Mittel behandelt. Die hepatoprotektive Aktivität wurde 7 und 14 Tage ab Anfang der Behandlung bewertet. Im Blutserum wurden die Aktivität von Aspartat-Amino-transferase (ASAT), Alanin-Aminotransferase (ALT), alkalische Phosphatase sowie der Cholesterinspiegel, Triglyzeridespiegel ermittelt. […]
Die statistische Datenverarbeitung wurde anhand der handelsüblichen Software Microsoft Excel durchgeführt. Die Unterschiede zwischen den Stichproben wurden anhand des Student t-Tests bewertet. […] Die Angaben sind in der Tabelle 3 aufgeführt. Tabelle 3. […] Tag […]

Test [2] relates to Modell des Indometacin-Magengeschwürs. Kind of test: Gastroprotective activity in the indometacin gastric ulcer model. It is filed as in vivo, Ratten der Linie Sprague-Dawley. The text has this:
Beispiel 1 Gastroprotektive Aktivität der erfindungsgemäßen pharmazeutischen Zubereitung bei Verabreichung am Modell einer Geschwürbildung.
Die experimentelle Forschung wurde an 50 männlichen Auszucht-Ratten der Linie Sprague-Dawley mit einem Körpergewicht von 180 - 200 g durchgeführt. Vor den Versuchen wurden die Tiere einer 14 Tage langen Quarantäne und Randomisierung unterzogen. Die Tiere wurden unter Vivarium-Bedingungen mit genormter Nahrungsration unterhalten.
Die Tiere wurden in folgende Gruppen aufgeteilt: • Ratten, die mit einem ulzerogenen Präparat (Indometacin) und Kochsalzlösung (2 ml/kg) behandelt wurden; diese Tiere bilden die Vergleichsgruppe (Referenzgruppe); • Ratten, die mit einem ulzerogenen Präparat intragastrisch und einem Vergleichspräparat (Sucralfate in der Dosis von 200,0 mg/kg) behandelt wurden; • Ratten, die mit einem ulzerogenen Präparat intragastrisch und mit der pharmazeutischen Zubereitung (10,0 µg/kg) behandelt wurden; • Ratten, die mit einem ulzerogenen Präparat intragastrisch und mit der pharmazeutischen Zubereitung (0,1 µg/kg) behandelt wurden. physiologischen Lösung verabreicht. Die pharmazeutische Zubereitung und das Vergleichspräparat in den oben genannten Mengen wurden im Laufe von 7 Tagen ab dem Zeitpunkt der Simulation des Indometacin-Magengeschwürs (Heilschema) intragastrisch verabreicht. Die Tiere der Referenzgruppe wurden mit Äquivolumen-Mengen des Lösemittels unter entsprechenden Regimes behandelt.
Das Körpergewicht der Tiere wurde im Zeitablauf ermittelt. 24 Stunden nach Abschluss dieser Behandlung wurden die Tiere der Euthanasie mittels prompter Dekapitation unter Blutabnahme unterzogen. Die Mägen wurden entnommen, an der Minorseite aufgeschnitten und mit kalter Kochsalzlösung gewaschen. Die Destruktionszahl wurde makroskopisch mit Hilfe von einem Binokular unter heller Vertikalbeleuchtung ermittelt. Die Destruktionen wurden je nach ihrem Flächeninhalt wie folgt differenziert: Fein (punktförmig, Größe von unter 1 mm), mittelmäßig (rund und streifenförmig, ab 1 mm) und groß (über 1- 2 mm). Das Vorhandensein von Blut an der Destruktionsunterkante wurde anhand der Peroxydase-Reaktion mit Orthodianisidin-Substrat unter Kennfärben der Schleimhaut mit Methylenblau erkannt. Dabei wurde die hämhaltige Oberfläche braun-schwarz im bläulichen Hintergrund der intakten Schleimhaut gefärbt.
Die Verteilung der Tiere in der Gruppe mit Schleimhautfehlern wurde je nach Grad der Ausprägung der makroskopischen Änderungen erfasst. Der Paul's Index (PI) wurde wie folgt berechnet: durchschnittliche Geschwürmenge x % der Tiere mit Geschwüren / 100 %. Die gastroprotektive Aktivität (GA) wurde als PI / PI Verhältnis zwischen der Referenzgruppe und einer Versuchsgruppe berechnet. Das zu untersuchende Präparat wurde als aktiv beurteilt, wenn GA 2 und mehr betrug.
Die statistische Datenverarbeitung wurde anhand der handelsüblichen Software Microsoft Excel durchgeführt. Die Relevanz der Änderungen wurde unter Anwendung des Student t-Tests berechnet.

Test [3] has as its system chronischen Duodenalulkus durch Heliobacter pylori. The note with it: peroral, in complex therapy; cited from earlier work.
Test [4] concerns nicht durch Heliobacter pylori assoziierte Magengeschwüren. The note with it: peroral, in complex therapy; cited from earlier work.

As to `COc1cc(C2Oc3cc([C@H]4Oc5cc(O)cc(O)c5C(=O)[C@@H]4O)ccc3OC2CO)ccc1O` (some centres unmarked) [Silibinin], in test [1] (7. Behandlungstag), the APh is recorded as 469±30 nMol/s x L, the ALAT is reported as 1,56±0,12 mMol/Einheiten x L, the ASAT is on record as 1,28±0,15 mMol/Einheiten x L and the Cholesterin is 3,60±0,18 mMol/ L. Besides, in test [1] (7. Behandlungstag), the Triglyzeride is given as 2,44±0,12 mMol/ L. Besides, in test [1] (14. Behandlungstag), the APh was determined as 288±17 nMol/s x L, the ALAT is 0,99±0,16 mMol/Einheiten x L, the ASAT is listed as 0,75±0,11 mMol/Einheiten x L and the Cholesterin was 1,99±0,12 mMol/ L. Further, in test [1] (14. Behandlungstag), the Triglyzeride was 1,48±0,14 mMol/ L.
On to Sucralfate, for which, in test [2] (200 mg/kg intragastric, 7 days), the “Anzahl der Geschwüre (X ± m) Fein” value is 8±2, the “Anzahl der Geschwüre (X ± m) Groß” value was found to be 5±2, the “Anzahl der Geschwüre (X ± m) Mittelmäßig” value amounted to 4±1 and the “Tiere mit Geschwüren” value is recorded as 100%. For the same compound, the PI in test [2] (200 mg/kg intragastric, 7 days, Paul's Index) is recorded as 16,9*. For the same compound, in test [2] (200 mg/kg intragastric, 7 days, gastroprotektive Aktivität, PI reference / PI test group, active if 2 or more), the GA is 2,05. The “Durchschnitt (X±m)” value in test [2] (200 mg/kg intragastric, 7 days, mean number of ulcers) is listed as 17±4. Further, in test [2] (200 mg/kg intragastric, 3 Tage), the “Körpergewichtsverlauf (M±m)” value came to 186 ± 4 g. Besides, the “Körpergewichtsverlauf (M±m)” value in test [2] (200 mg/kg intragastric, 7 Tage) was 169 ± 3 g. In addition, in test [2] (200 mg/kg intragastric, Hintergrund (baseline)), the “Körpergewichtsverlauf (M±m)” value turned out to be 198 ± 3 g. Further, in test [2] (Sucralfate 200 mg/kg), the “Hyperämie der Schleimhaut, Anteil der Tiere” value is recorded as 40%.
Regarding “N-Acetyl- Glukosaminyl- 1 -4-N-Acetylmuramid- L-Alanyl- D-Isoglutamin [Licopid]”, the “Eradikation von Heliobacter pylori und Wiederherstellung der Magenschleimhaut” value in test [3] was “hohe Effizienz hinsichtlich der Eradikation von Heliobacter pylori”.
As to “TEKRRETVEREKE [Gepon, synthetischer Peptid-Immunmodulator]”, in test [4], the “Regeneration, Vernarbungszeit, zellgebundene Immunität” value was “Beschleunigung der Regenerationsvorgänge, zur Abkürzung der Vernarbungszeit des ulzerösen Defekts und zur Verbesserung der Kenndaten der zellgebundenen Immunität”.
